Assay results taken from patent USRE40259E1, “Alpha-aminoamide derivatives useful as analgesic agents” (Newron Pharmaceuticals, S.p.A., priority 1997, dated 2008).
Marks after values point to notes of the source that are not given here.

Key:
Assay type in all cases: in vivo
Male NMRI CD-1 mice = assay: Formalin test (formalin nociception test in mice); details: for Licking time, Acute phase / Licking time, Chronic phase: 60 min before formalin, mice; for Licking time, Acute phase: acute phase 0-5 min; for Licking time, Chronic phase: chronic phase 30-40 min; for Effect on cumulative licking time in both phases of the formalin test: 7.5-60.0 mg/kg po, result in words
Description: Formalin test is a useful tool for obtaining neurogenic inflammation and continuous pain (Shibata et al, Pain, 38: 347-352, 1989).
Formalin produces a distinct biphasic response. The early phase seems to be caused predominantly by C-fibre activation due to peripheral stimulus, while the late phase appears to be dependent on the combination of an inflammatory reaction in the peripheral tissue and functional changes in the dorsal horn of the spinal cord. This functional changes seem to be initiated by the C-fibre barrage during the early phase (Tjolsen et al. Pain 51, 5-17, 1992). Substance P and bradykinin participate in the early phase, while histamine, serotonin, prostaglandins and bradykinin are involved in the late phase.
Male NMRI CD-1 mice (22-25 g) were injected with […] μl of 2.7% solution of formalin into the right hindpaw and placed immediately into observation chambers. The cumulative licking time of the injected paw was recorded in the acute phase (0-5 min) and in the chronic phase (30-40 min) of the nociceptive response of formalin.
The two representative compounds of the invention (S)-2-[4-(3- fluorobenzyloxy)benzylamino]-propanamide, methanesulfonate (internal code PNU 151774E) and (S)-[2-[4-(3-fluorobenzyloxy)benzylamino]-2-methyl-propanamide […] were administered 60 min before formalin injection at the doses of 7.5, 15.0, 30.0 and 60.0 mg/kg; po. Morphine (5 mg/kg; sc) was used as a positive standard. The activities data were analysed by Dunnett's t-test.

mice [1] = assay: Locomotor activity test; details: for Locomotor activity counts (mean ± sem): 60 min before test, 15 min test, mice; for Effect on locomotor activity: 7.5-60.0 mg/kg po, result in words
Procedure: (§1) The effects of these compounds on locomotor activity and rotarod (a test for evaluating motor co-ordination) were studied in order to exclude changes in these parameters as confounding factors in the evaluation of the formalin response. The locomotor activity test lasted 15 min. Five minutes after testing locomotor activity, the mice were put on the rotarod for 2 min and the number of mice falling within this time were counted. Compounds PNU 151774E and PNU 156654E were tested at the doses of 7.5, 15.0, 30.0 and 60.0 mg/kg; po. The compounds were administered 60 min before locomotor activity test.

mice [2] = assay: Rotarod (motor co-ordination); details: for Rotarod co-ordination (mice fallen/total mice): 2 min on rotarod; for Effect on rotarod activity: 7.5-60.0 mg/kg po, result in words
Procedure: as §1

Locomotor activity counts (mean ± sem) (mice [1]; 7.5 mg/kg po) [counts] | Locomotor activity counts (mean ± sem) (mice [1]; 15 mg/kg po) [counts] | Locomotor activity counts (mean ± sem) (mice [1]; 30 mg/kg po) [counts] | Locomotor activity counts (mean ± sem) (mice [1]; 60 mg/kg po) [counts] | Effect on locomotor activity (mice [1]) | Structure (SMILES) | Licking time, Acute phase (Male NMRI CD-1 mice; 7.5 mg/kg po) | Licking time, Chronic phase (Male NMRI CD-1 mice; 7.5 mg/kg po) | Licking time, Acute phase (Male NMRI CD-1 mice; 15.0 mg/kg po) | Licking time, Chronic phase (Male NMRI CD-1 mice; 15.0 mg/kg po) | Licking time, Acute phase (Male NMRI CD-1 mice; 30.0 mg/kg po) | Licking time, Chronic phase (Male NMRI CD-1 mice; 30.0 mg/kg po) | Licking time, Acute phase (Male NMRI CD-1 mice; 60.0 mg/kg po) | Licking time, Chronic phase (Male NMRI CD-1 mice; 60.0 mg/kg po) | Effect on cumulative licking time in both phases of the formalin test (Male NMRI CD-1 mice) | Rotarod co-ordination (mice fallen/total mice) (mice [2]; 7.5 mg/kg po) | Rotarod co-ordination (mice fallen/total mice) (mice [2]; 15 mg/kg po) | Rotarod co-ordination (mice fallen/total mice) (mice [2]; 30 mg/kg po) | Rotarod co-ordination (mice fallen/total mice) (mice [2]; 60 mg/kg po) | Effect on rotarod activity (mice [2])
2908 ± 234 | 2795 ± 255 | 2347 ± 203 | 2240 ± 195 | without any effect | C[C@H](NCc1ccc(OCc2cccc(F)c2)cc1)C(N)=O [PNU 151774E, (S)-2-[4-(3-fluorobenzyloxy)benzylamino]-propanamide, methanesulfonate] | 137.9 ± 2.4^a sec | 72.4 ± 2.4^ sec | 87.9 ± 3.3^a sec | 64.3 ± 2.8^b sec | 79.4 ± 3.0^a sec | 56.9 ± 2.6^a sec | 63.1 ± 2.6^a sec | 38.1 ± 3.6^a sec | dose-dependently reduced cumulative licking time in both phases | 0/10 | 0/10 | 0/10 | 0/10 | without any effect
1966 ± 188 | 2110 ± 256 | 2272 ± 317 | 2119 ± 310 | without any effect | CC(C)(NCc1ccc(OCc2cccc(F)c2)cc1)C(N)=O [PNU 156654E, 2-[4-(3-fluorobenzyloxy)benzylamino]-2-methyl-propanamide] | 108.4 ± 4.2^ sec | 62.4 ± 3.6^ sec | 79.7 ± 3.7^a sec | 42.1 ± 6.2^a sec | 60.0 ± 2.3^a sec | 37.7 ± 6.9^a sec | 44.4 ± 4.2^a sec | 17.3 ± 6.6^a sec | dose-dependently reduced cumulative licking time in both phases | 0/10 | 0/10 | 0/10 | 0/10 | without any effect
